# Paper PMC6769917, “Glycan Binding Profiling of Jacalin-Related Lectins from the Pteria Penguin Pearl Shell” (International Journal of Molecular Sciences, 2019)
# Target: T1, PPL4 (Pteria penguin, UniProt B6F0T8+B6F0T9)
# T1 construct: gene PPL4-a; native, purified from mantle secretory fluid; mature 148 residues per subunit, 16 kDa; disulfide-linked heterodimer 32 kDa (head-to-head, N-terminal bond); N-termini […]; (alpha), […]; (beta)
# Test: hemagglutination inhibition, rabbit erythrocytes, purified lectin
# Format: cell-based
# Conditions: 0.15 M NaCl; hemagglutination titer 2^−3; 2% rabbit erythrocytes
# Description: hemagglutination inhibition, rabbit erythrocytes, purified lectin on PPL4
# T1 sequence (B6F0T8 entry or part of it): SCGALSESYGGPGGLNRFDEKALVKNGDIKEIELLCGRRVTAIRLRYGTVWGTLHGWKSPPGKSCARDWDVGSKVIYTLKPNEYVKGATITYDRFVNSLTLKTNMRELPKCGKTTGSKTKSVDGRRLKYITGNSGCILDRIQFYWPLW
# T1 sequence (B6F0T9 entry or part of it): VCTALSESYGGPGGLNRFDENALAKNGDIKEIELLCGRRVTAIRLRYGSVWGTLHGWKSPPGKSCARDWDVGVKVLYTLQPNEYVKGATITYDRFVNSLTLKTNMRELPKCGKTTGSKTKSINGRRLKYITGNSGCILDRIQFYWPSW
structure (smiles),measurement,value
OCC1(O)OC[C@@H](O)[C@@H](O)[C@@H]1O (stereo partly drawn) [D-Fructose],PPL3,50 mM
OC[C@H]1O[C@H](OC[C@H]2OC(O)[C@H](O)[C@@H](O)[C@@H]2O)[C@H](O)[C@@H](O)[C@@H]1O (some centres unmarked) [Isomaltose],PPL4,> 200 mM
OC[C@H]1O[C@H](O[C@H]2C(O)O[C@H](CO)[C@@H](O)[C@@H]2O)[C@H](O)[C@@H](O)[C@@H]1O (some centres unmarked) [Kojibiose],PPL4,100 mM
CC(=O)N[C@H]1C(O)O[C@H](CO)[C@@H](O)[C@@H]1O (stereo partly drawn) [N-Acetyl-D-glucosamine],PPL4,6.25 mM
OC[C@H]1O[C@H](O[C@H]2O[C@H](CO)[C@@H](O)[C@H](O)[C@H]2O)[C@H](O)[C@@H](O)[C@@H]1O [Trehalose],PPL4,100 mM
